Assay results taken from patent publication US4510136A (priority 1983, dated 1985).

Key:
Format in all cases: in vivo
Helminthosporium maydis = test: Southern corn leaf blight control on sprayed corn seedlings (Example 83); conditions: Bipolaris maydis, 192 h, 100 ppm spray, day before inoculation
Experimental: The compounds of the previous examples were again dissolved in acetone in an amount equal to 6% of the final volume and then suspended at a concentration of 100 ppm in purified water containing 250 ppm of the surfactant TREM 014 (polyhydric alcohol esters). These suspensions were sprayed to the point of run-off on corn seedlings. The following day, the plants were inoculated with a spore suspension of Helminthosporium maydis, causal agent of southern corn leaf blight, and incubated in a saturated humidity chamber at 20° for 24 hours and then in a growth room for an additional 7 days, when disease ratings were made. Treated plants from successful treatments had few or no lesions while the untreated plants had numerous lesions on each leaf. Phytotoxicity expressed as growth reduction was observed on some of the plants in association with disease control.

Venturia inaequalis = test: Apple scab control on sprayed apple seedlings (Example 82); conditions: Venturia inaequalis, 100 ppm spray, day before inoculation
Experimental: These suspensions were sprayed to the point of run-off on apple seedlings. The following day, the plants were inoculated with a spore suspension of the fungus Venturia inaequalis, causal agent of apple scab, and incubated in a saturated humidity chamber at 20° for 24 hours and then in a growth room for an additional 10-12 days. Treated plants from successful treatments had fewer apple scab lesions when compared to untreated plants which were covered with scab lesions. Phytotoxicity expressed as growth reduction was observed on some of the plants in association with disease control.

Erysiphe cichoracearum = test: Cucumber powdery mildew control on sprayed cucumber seedlings (Example 80); conditions: Golovinomyces cichoracearum, 168 h, 100 ppm spray, day before inoculation
Experimental: These suspensions were sprayed to the point of run-off, on cucumber seedlings. The following day, the plants were inoculated with a spore suspension of the fungus Erysiphe cichoracearum, causal agent of cucumber powdery mildew, and incubated in a growth room for 7 days. Disease ratings were then made. Treated plants from successful treatments had little or no powdery mildew in contrast to untreated plants which were covered with powdery mildew. Phytotoxicity in the form of growth reduction or hormonal effects was observed on some of the plants in association with disease control.

Pyricularia oryzae = test: whole plant or invertebrate; conditions: Pyricularia oryzae, 168 h, read-out: % Control of Rice Blast, 100 ppm spray, day before inoculation
[1] = test system: Puccinia recondita var. tritici; test: Wheat leaf rust control on sprayed wheat seedlings (Example 79); conditions: Puccinia recondita, 168 h; for pest or weed control at 100 ppm: 100 ppm spray, day before inoculation
Experimental: The compounds of this invention were dissolved in acetone in an amount equal to 6% of the final volume and then suspended at a concentration of 100 ppm in purified water containing 250 ppm of the surfactant TREM 014 (polyhydric alcohol esters). These suspensions were sprayed to the point of run-off on wheat seedlings. The following day, the plants were inoculated with a spore suspension of Puccinia recondita var. tritici, causal agent of wheat leaf rust, and incubated in a saturated humidity chamber at 20° for 24 hours and then in a growth room for an additional 7 days, when disease ratings were made. Treated plants from successful treatments had few or no rust pustules while the untreated plants had numerous rust pustules on each leaf.

Rhizoctonia solani = test: Rice sheath blight control on sprayed rice seedlings (Example 87); conditions: Rhizoctonia solani, 168 h, 100 ppm spray, day before inoculation
Experimental: The compounds of the previous examples were again dissolved in acetone in an amount equal to 6% of the final volume and then suspended at a concentration of 100 ppm in purified water containing 250 ppm of the surfactant TREM 014 (polyhydric alcohol esters). This suspension was sprayed to the point of run-off on rice seedlings. The following day, the plants were inoculated with a mixture of bran and the mycelium of Rhizoctonia solani, causal agent of sheath blight of rice, and incubated in a growth room for 7 days. Disease ratings were then made. Treated plants from successful treatments had little sheath blight in contrast to untreated plants which were covered with sheath blight.

Cercospora arachidicola = test: Peanut early leafspot control on sprayed peanut seedlings (Example 84); conditions: Mycosphaerella arachidis, 360 h, read-out: % Control Peanut Easly Leafspot; for pest or weed control at 100 ppm: 100 ppm spray, day before inoculation
Experimental: These suspensions were sprayed to the point of run-off on peanut seedlings. The following day, the plants were inoculated with a spore suspension of Cercospora arachidicola, causal agent of peanut early leafspot, and incubated in a saturated humidity chamber at 27° for 24 hours and then in a growth room for an additional 14 days, when disease ratings were made. Treated plants from successful treatments had few or no leafspots while the untreated plants had numerous leafspots.

Phytophthora infestans = test: whole plant or invertebrate; conditions: Phytophthora infestans, in Solanum lycopersicum, 168 h, read-out: % Control of Tomato Late Blight, 100 ppm spray, day before inoculation

C[Si](O)(Cn1cncn1)c1ccc(-c2ccccc2)cc1 (centres unmarked) [(1,1'-Biphenyl-4-yl)hydroxy(methyl)(1H-1,2,4-triazol-1-ylmethyl)silane]
pest or weed control at 100 ppm (Helminthosporium maydis): 0%
pest or weed control at 100 ppm (Venturia inaequalis): 100%
pest or weed control at 100 ppm (Erysiphe cichoracearum): 100%
pest or weed control at 100 ppm (Pyricularia oryzae): 0%
pest or weed control at 100 ppm [1]: 90%
pest or weed control at 100 ppm (Rhizoctonia solani): 0%
pest or weed control at 100 ppm (Cercospora arachidicola): 100%
pest or weed control at 100 ppm (Phytophthora infestans): 0%

CC(C)O[Si](C)(Cn1cncn1)c1ccc(-c2ccccc2)cc1 (centres unmarked) [(1,1'-biphenyl-4-yl)methyl(2-propoxy)(1H-1,2,4-triazol-1-ylmethyl)silane]
pest or weed control at 100 ppm (Helminthosporium maydis): 90%
pest or weed control at 100 ppm (Venturia inaequalis): 100%
pest or weed control at 100 ppm (Erysiphe cichoracearum): 100%
pest or weed control at 100 ppm (Pyricularia oryzae): 0%
pest or weed control at 100 ppm [1]: 100%
pest or weed control at 100 ppm (Rhizoctonia solani): 0%
pest or weed control at 100 ppm (Cercospora arachidicola): 100%
pest or weed control at 100 ppm (Phytophthora infestans): 0%

CC(C)(C)O[Si](C)(Cn1cncn1)c1ccccc1 (centres unmarked) [(1,1-dimethylethoxy)methyl(phenyl)(1H-1,2,4-triazol-1-ylmethyl)silane]
pest or weed control at 100 ppm (Helminthosporium maydis): 0%
pest or weed control at 100 ppm (Venturia inaequalis): 0%
pest or weed control at 100 ppm (Erysiphe cichoracearum): 100%
pest or weed control at 100 ppm (Pyricularia oryzae): 0%
pest or weed control at 100 ppm [1]: 0%
pest or weed control at 100 ppm (Rhizoctonia solani): 0%
pest or weed control at 100 ppm (Cercospora arachidicola): 0%
pest or weed control at 100 ppm (Phytophthora infestans): 0%

C[Si](C)(Cn1cncn1)c1cc(Cl)cc(Cl)c1 [(3,5-Dichlorophenyl)dimethyl(1H-1,2,4-triazol-1-ylmethyl)silane]
pest or weed control at 100 ppm (Helminthosporium maydis): 40%
pest or weed control at 100 ppm (Venturia inaequalis): 0%
pest or weed control at 100 ppm (Erysiphe cichoracearum): 0%
pest or weed control at 100 ppm (Pyricularia oryzae): 0%
pest or weed control at 100 ppm [1]: 80%
pest or weed control at 100 ppm (Rhizoctonia solani): 0%
pest or weed control at 100 ppm (Cercospora arachidicola): 0%
pest or weed control at 100 ppm (Phytophthora infestans): 0%

C[Si](C)(Cn1cncn1)c1cccc(Cl)c1 [(3-Chlorophenyl)dimethyl(1H-1,2,4-triazol-1-ylmethyl)silane]
pest or weed control at 100 ppm (Helminthosporium maydis): 0%
pest or weed control at 100 ppm (Venturia inaequalis): 60%
pest or weed control at 100 ppm (Erysiphe cichoracearum): 0%
pest or weed control at 100 ppm (Pyricularia oryzae): 0%
pest or weed control at 100 ppm [1]: 0%
pest or weed control at 100 ppm (Rhizoctonia solani): 0%
pest or weed control at 100 ppm (Cercospora arachidicola): 0%
pest or weed control at 100 ppm (Phytophthora infestans): 0%

C[Si](C)(Cn1cncn1)c1ccc(-c2ccc(Br)cc2)cc1 [(4'-Bromo-1,1'-biphenyl-4-yl)dimethyl(1H-1,2,4-triazol-1-ylmethyl)silane]
pest or weed control at 100 ppm (Helminthosporium maydis): 70%
pest or weed control at 100 ppm (Venturia inaequalis): 100%
pest or weed control at 100 ppm (Erysiphe cichoracearum): 100%
pest or weed control at 100 ppm (Pyricularia oryzae): 90%
pest or weed control at 100 ppm [1]: 100%
pest or weed control at 100 ppm (Rhizoctonia solani): 90%
pest or weed control at 100 ppm (Cercospora arachidicola): 100%
pest or weed control at 100 ppm (Phytophthora infestans): 30%

CCCC[Si](C)(Cn1cncn1)c1ccccc1 (centres unmarked) [Butyl(methyl)phenyl(1H-1,2,4-triazol-1-ylmethyl)silane]
pest or weed control at 100 ppm (Helminthosporium maydis): 0%
pest or weed control at 100 ppm (Venturia inaequalis): 80%
pest or weed control at 100 ppm (Erysiphe cichoracearum): 100%
pest or weed control at 100 ppm (Pyricularia oryzae): 90%
pest or weed control at 100 ppm [1]: 0%
pest or weed control at 100 ppm (Rhizoctonia solani): 90%
pest or weed control at 100 ppm (Cercospora arachidicola): 0%
pest or weed control at 100 ppm (Phytophthora infestans): 0%

C[Si](C)(Cn1cncn1)c1cccc(C(F)(F)F)c1 [Dimethyl(1H-1,2,4-triazol-1-ylmethyl)(3-trifluoromethylphenyl)silane]
pest or weed control at 100 ppm (Helminthosporium maydis): 0%
pest or weed control at 100 ppm (Venturia inaequalis): 0%
pest or weed control at 100 ppm (Erysiphe cichoracearum): 100%
pest or weed control at 100 ppm (Pyricularia oryzae): 0%
pest or weed control at 100 ppm [1]: 0%
pest or weed control at 100 ppm (Rhizoctonia solani): 0%
pest or weed control at 100 ppm (Cercospora arachidicola): 0%
pest or weed control at 100 ppm (Phytophthora infestans): 0%

C[Si](C)(Cn1cncn1)c1ccc(S(C)(=O)=O)cc1 [Dimethyl(4-methylsulfonylphenyl)(1H-1,2,4-triazol-1-ylmethyl)silane]
pest or weed control at 100 ppm (Helminthosporium maydis): 0%
pest or weed control at 100 ppm (Venturia inaequalis): 0%
pest or weed control at 100 ppm (Erysiphe cichoracearum): 0%
pest or weed control at 100 ppm (Pyricularia oryzae): 70%
pest or weed control at 100 ppm [1]: 0%
pest or weed control at 100 ppm (Rhizoctonia solani): 0%
pest or weed control at 100 ppm (Cercospora arachidicola): 0%
pest or weed control at 100 ppm (Phytophthora infestans): 0%

CSc1ccc([Si](C)(C)Cn2cncn2)cc1 [Dimethyl(4-methylthiophenyl)(1H-1,2,4-triazol-1-ylmethyl)silane]
pest or weed control at 100 ppm (Helminthosporium maydis): 80%
pest or weed control at 100 ppm (Venturia inaequalis): 60%
pest or weed control at 100 ppm (Erysiphe cichoracearum): 100%
pest or weed control at 100 ppm (Pyricularia oryzae): 0%
pest or weed control at 100 ppm [1]: 0%
pest or weed control at 100 ppm (Rhizoctonia solani): 0%
pest or weed control at 100 ppm (Cercospora arachidicola): 0%
pest or weed control at 100 ppm (Phytophthora infestans): 0%

CCCCCCCCCCCCCCCCCC[Si](C)(C)Cn1cncn1 [Dimethyl(octadecyl)(1H-1,2,4-triazol-1-ylmethyl)silane]
pest or weed control at 100 ppm (Helminthosporium maydis): 0%
pest or weed control at 100 ppm (Venturia inaequalis): 60%
pest or weed control at 100 ppm (Erysiphe cichoracearum): 0%
pest or weed control at 100 ppm (Pyricularia oryzae): 0%
pest or weed control at 100 ppm [1]: 0%
pest or weed control at 100 ppm (Rhizoctonia solani): 0%
pest or weed control at 100 ppm (Cercospora arachidicola): 0%
pest or weed control at 100 ppm (Phytophthora infestans): 0%

CC(C)O[Si](C)(Cn1cncn1)c1ccccc1 (centres unmarked) [Methyl(phenyl)(2-propoxy)(1H-1,2,4-triazol-1-ylmethyl)silane]
pest or weed control at 100 ppm (Helminthosporium maydis): 0%
pest or weed control at 100 ppm (Venturia inaequalis): 0%
pest or weed control at 100 ppm (Erysiphe cichoracearum): 100%
pest or weed control at 100 ppm (Pyricularia oryzae): 0%
pest or weed control at 100 ppm [1]: 0%
pest or weed control at 100 ppm (Rhizoctonia solani): 0%
pest or weed control at 100 ppm (Cercospora arachidicola): 0%
pest or weed control at 100 ppm (Phytophthora infestans): 0%

Cc1ccc([Si](C)(Cn2cncn2)c2ccc(C)cc2)cc1 [Methyl[bis(4-methylphenyl)](1H-1,2,4-triazol-1-ylmethyl)silane]
pest or weed control at 100 ppm (Helminthosporium maydis): 0%
pest or weed control at 100 ppm (Venturia inaequalis): 0%
pest or weed control at 100 ppm (Erysiphe cichoracearum): 0%
pest or weed control at 100 ppm (Pyricularia oryzae): 80%
pest or weed control at 100 ppm [1]: 0%
pest or weed control at 100 ppm (Rhizoctonia solani): 30%
pest or weed control at 100 ppm (Cercospora arachidicola): 0%
pest or weed control at 100 ppm (Phytophthora infestans): 0%

Fc1ccc([Si](Cn2cncn2)(O[Si](Cn2cncn2)(c2ccc(F)cc2)c2ccc(F)cc2)c2ccc(F)cc2)cc1 [Oxybis[bis(4-fluorophenyl)(1H-1,2,4-triazol-1-ylmethyl)silane]]
pest or weed control at 100 ppm (Helminthosporium maydis): 97%
pest or weed control at 100 ppm (Venturia inaequalis): 100%
pest or weed control at 100 ppm (Erysiphe cichoracearum): 100%
pest or weed control at 100 ppm (Pyricularia oryzae): 50%
pest or weed control at 100 ppm [1]: 100%
pest or weed control at 100 ppm (Rhizoctonia solani): 0%
pest or weed control at 20 ppm (Cercospora arachidicola; applied at 20 ppm): 93%
pest or weed control at 100 ppm (Phytophthora infestans): 0%

CC(C)(C)c1ccc([Si](C)(C)Cn2cncn2)cc1 [[4-(1,1-Dimethylethyl)phenyl]dimethyl(1H-1,2,4-triazol-1-ylmethyl)silane]
pest or weed control at 100 ppm (Helminthosporium maydis): 60%
pest or weed control at 100 ppm (Venturia inaequalis): 0%
pest or weed control at 100 ppm (Erysiphe cichoracearum): 0%
pest or weed control at 100 ppm (Pyricularia oryzae): 90%
pest or weed control at 200 ppm ([1]; applied at 200 ppm): 80%
pest or weed control at 100 ppm (Rhizoctonia solani): 90%
pest or weed control at 100 ppm (Cercospora arachidicola): 35%
pest or weed control at 100 ppm (Phytophthora infestans): 0%

C[Si](Cn1cncn1)(c1ccccc1Cl)c1ccccc1Cl [[bis(2-Chlorophenyl)]methyl(1H-1,2,4-triazol-1-ylmethyl)silane]
pest or weed control at 100 ppm (Helminthosporium maydis): 60%
pest or weed control at 100 ppm (Venturia inaequalis): 40%
pest or weed control at 100 ppm (Erysiphe cichoracearum): 100%
pest or weed control at 100 ppm (Pyricularia oryzae): 90%
pest or weed control at 100 ppm [1]: 100%
pest or weed control at 100 ppm (Rhizoctonia solani): 60%
pest or weed control at 100 ppm (Cercospora arachidicola): 100%
pest or weed control at 100 ppm (Phytophthora infestans): 0%
